Test results published in US11076595B2, “1-(n,n-disubstituted carbamoyl) 4-(substituted sulfonyl)triazolin-5-one derivative, 4-(n,n-disubstituted carbamoyl) 1-(substituted sulfonyl)triazolin-5-one derivative, and herbicide containing said derivative as active ingredient” (HOKKO CHEMICAL INDUSTRY CO., LTD., priority 2017, dated 2021).

How the values were obtained:
Type in all cases: in vivo
[1] = test system: Echinochloa crus-galli; assay: Test Example 11: herbicidal effect test by soil treatment in paddy field; settings: 120 g/10a active ingredient, 14 days after treatment
Outline: (§1)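 Dry weight at day 14 relative to untreated controls gives the suppression rate; duplicate pots. Treatment: 120 g a.i./10 are into paddy water at sowing.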

[2] = test system: Scirpus juncoides; assay: as above; settings: 120 g/10a active ingredient, 14 days after treatment
Outline: as §1

[3] = test system: Monochoria vaginalis; assay: as above; settings: 120 g/10a active ingredient, 14 days after treatment
Outline: as §1

[4] = test system: Lindernia pyxidaria; assay: as above; settings: 120 g/10a active ingredient, 14 days after treatment
Outline: as §1

[5] = test system: Echinochloa crus-galli; assay: Test Example 12: herbicidal effect test by treatment during growing period in paddy field; settings: 120 g/10a; treatment seven days after sowing in flooded paddy pot; assessed 14 days after treatment
Outline: (§2)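 Weed suppression (%) = (1 − treated/untreated mean dry weight) × 100, scored 14 days after treatment with two replicates per plot. Dose 120 g a.i. per 10 are, as diluted emulsifiable concentrate added dropwise to flooded pots (water about 3 cm) 7 days post-sowing, seeds at 0-1 cm.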

[6] = test system: Scirpus juncoides; assay: as above; settings: 120 g/10a; treatment seven days after sowing in flooded paddy pot; assessed 14 days after treatment
Outline: as §2

[7] = test system: Monochoria vaginalis; assay: as above; settings: 120 g/10a; treatment seven days after sowing in flooded paddy pot; assessed 14 days after treatment
Outline: as §2

[8] = test system: Lindernia pyxidaria; assay: as above; settings: 120 g/10a; treatment seven days after sowing in flooded paddy pot; assessed 14 days after treatment
Outline: as §2

Compound: Cc1ccc(S(=O)(=O)n2ncn(C(=O)N(c3ccccc3F)C(C)C)c2=O)cc1 [Compound 11-627]
- Weed suppression rate (%) Echinochloa crus-galli [1]: 90%
- Weed suppression rate (%) Scirpus juncoides [2]: 90%
- Weed suppression rate (%) Monochoria vaginalis [3]: 80%
- Weed suppression rate (%) Lindemia pyxidaria [4]: 80%
- Weed suppression rate (%) Echinochloa crus-galli [5]: 90%
- Weed suppression rate (%) Scirpus juncoides [6]: 90%
- Weed suppression rate (%) Monochoria vaginalis [7]: 80%
- Weed suppression rate (%) Lindemia pyxidaria [8]: 80%

Compound: Cc1ccc(S(=O)(=O)n2ncn(C(=O)N(c3cccc(F)c3)C(C)C)c2=O)cc1 [Compound 11-628]
- Weed suppression rate (%) Echinochloa crus-galli [1]: 90%
- Weed suppression rate (%) Scirpus juncoides [2]: 90%
- Weed suppression rate (%) Monochoria vaginalis [3]: 80%
- Weed suppression rate (%) Lindemia pyxidaria [4]: 80%
- Weed suppression rate (%) Echinochloa crus-galli [5]: 90%
- Weed suppression rate (%) Scirpus juncoides [6]: 90%
- Weed suppression rate (%) Monochoria vaginalis [7]: 80%
- Weed suppression rate (%) Lindemia pyxidaria [8]: 80%

Compound: Cc1ccc(S(=O)(=O)n2ncn(C(=O)N(c3cccc(F)c3F)C(C)C)c2=O)cc1 [Compound 11-636]
- Weed suppression rate (%) Echinochloa crus-galli [1]: 100%
- Weed suppression rate (%) Scirpus juncoides [2]: 90%
- Weed suppression rate (%) Monochoria vaginalis [3]: 100%
- Weed suppression rate (%) Lindemia pyxidaria [4]: 100%
- Weed suppression rate (%) Echinochloa crus-galli [5]: 100%
- Weed suppression rate (%) Scirpus juncoides [6]: 100%
- Weed suppression rate (%) Monochoria vaginalis [7]: 100%
- Weed suppression rate (%) Lindemia pyxidaria [8]: 80%

Compound: Cc1ccc(S(=O)(=O)n2ncn(C(=O)N(c3c(F)cccc3F)C(C)C)c2=O)cc1 [Compound 11-639]
- Weed suppression rate (%) Echinochloa crus-galli [1]: 100%
- Weed suppression rate (%) Scirpus juncoides [2]: 100%
- Weed suppression rate (%) Monochoria vaginalis [3]: 70%
- Weed suppression rate (%) Lindemia pyxidaria [4]: 100%
- Weed suppression rate (%) Echinochloa crus-galli [5]: 100%
- Weed suppression rate (%) Scirpus juncoides [6]: 70%
- Weed suppression rate (%) Monochoria vaginalis [7]: 70%
- Weed suppression rate (%) Lindemia pyxidaria [8]: 70%

Compound: Cc1ccc(S(=O)(=O)n2ncn(C(=O)N(c3ccc(F)c(F)c3F)C(C)C)c2=O)cc1 [Compound 11-640]
- Weed suppression rate (%) Echinochloa crus-galli [1]: 100%
- Weed suppression rate (%) Scirpus juncoides [2]: 90%
- Weed suppression rate (%) Monochoria vaginalis [3]: 70%
- Weed suppression rate (%) Lindemia pyxidaria [4]: 100%
- Weed suppression rate (%) Echinochloa crus-galli [5]: 80%
- Weed suppression rate (%) Scirpus juncoides [6]: 90%
- Weed suppression rate (%) Monochoria vaginalis [7]: 100%
- Weed suppression rate (%) Lindemia pyxidaria [8]: 70%

Compound: Cc1ccc(S(=O)(=O)n2ncn(C(=O)N(c3c(F)c(F)cc(F)c3F)C(C)C)c2=O)cc1 [Compound 11-642]
- Weed suppression rate (%) Echinochloa crus-galli [1]: 100%
- Weed suppression rate (%) Scirpus juncoides [2]: 70%
- Weed suppression rate (%) Monochoria vaginalis [3]: 70%
- Weed suppression rate (%) Lindemia pyxidaria [4]: 80%
- Weed suppression rate (%) Echinochloa crus-galli [5]: 100%
- Weed suppression rate (%) Scirpus juncoides [6]: 100%
- Weed suppression rate (%) Monochoria vaginalis [7]: 90%
- Weed suppression rate (%) Lindemia pyxidaria [8]: 70%

Compound: Cc1ccc(S(=O)(=O)n2ncn(C(=O)N(c3ccc(Cl)cc3F)C(C)C)c2=O)cc1 [Compound 11-645]
- Weed suppression rate (%) Echinochloa crus-galli [1]: 100%
- Weed suppression rate (%) Scirpus juncoides [2]: 90%
- Weed suppression rate (%) Monochoria vaginalis [3]: 90%
- Weed suppression rate (%) Lindemia pyxidaria [4]: 90%
- Weed suppression rate (%) Echinochloa crus-galli [5]: 60%
- Weed suppression rate (%) Scirpus juncoides [6]: 60%
- Weed suppression rate (%) Monochoria vaginalis [7]: 90%
- Weed suppression rate (%) Lindemia pyxidaria [8]: 90%

Compound: Cc1ccc(S(=O)(=O)n2ncn(C(=O)N(c3ccc(C)cc3F)C(C)C)c2=O)cc1 [Compound 11-651]
- Weed suppression rate (%) Echinochloa crus-galli [1]: 90%
- Weed suppression rate (%) Scirpus juncoides [2]: 90%
- Weed suppression rate (%) Monochoria vaginalis [3]: 90%
- Weed suppression rate (%) Lindemia pyxidaria [4]: 90%
- Weed suppression rate (%) Echinochloa crus-galli [5]: 90%
- Weed suppression rate (%) Scirpus juncoides [6]: 90%
- Weed suppression rate (%) Monochoria vaginalis [7]: 80%
- Weed suppression rate (%) Lindemia pyxidaria [8]: 80%
